Data reported in patent publication US6706491B1, “Reagents and methods for identifying and modulating expression of genes regulated by p21” (The Board of Trustees of the University of Illinois, priority 1999, dated 2004).

What was measured:
p21 = p21 induction in p21-9 cells by IPTG (p21 ELISA); assay type: cell-based, human
Method: p21 expression from the LNp21CO3 vector in p21-9 cells was induced by culturing the cells in DMEM medium containing 10% fetal calf serum (Hyclone, Logan, Utah) and IPTG. […] Upon removing the cells from IPTG-containing media, p21 expression fell about as rapidly as it had risen, returning to pre-induction levels at about 24 hours after IPTG was removed, (FIG. 2B).
(§1) Colony assays for recovery from IPTG treatment were performed by plating about 2,000 p21-9 cells per 10 cm culture dish in DMEM/10% FCS and the presence or absence of IPTG. Cells were allowed to form colonies for 10 days before their clonogenic capacity was determined. p12-9 cells were treated with three concentrations of IPTG: 0.5 μM, 5 μM and 50 μM. […] In contrast, continuous exposure of the cells to 5 μM or 50 μM IPTG reduced the clonogenicity of p2l-9 cells by 80% and 100%, respectively.
Expression of 69 of these genes was individually tested by RT-PCR or northern hybridization with probes derived from inserts of the cDNA clones present in the microarray; these cDNAs were obtained from Genome Systems, Inc. In addition, enzyme-linked immunosorbent assay (ELISA) measurement of p21 protein was carried out using WAF1 ELISA kit (obtained from Oncogene Science, Uniondale, N.Y.) as described (Chang et al., 1999, Oncogene 18: 4808-4818). The following primary antibodies were used for immunoblotting: mouse monoclonal antibodies against Cdc2 (Santa Cruz), cyclin A (NeoMarkers), Plk 1 (Zymed) and Rb (PharMingen); rabbit polyclonal antibodies against MAD2 (BadCo), p107 (Santa Cruz), CTGF (Fisp-12; a gift of Dr. L. Lau), Prc 1 (a gift of Drs. W. Jiang and T. Hunter), and topoisomerase IIα (Ab0284; a gift of Dr. W. T. Beck), and sheep polyclonal antibody against. SOD2 (Calbiochem). Horse radish peroxidase (HRP)-conjugated secondary antibodies used were goat anti-mouse and goat anti-rabbit. IgG (Santa:Cruz) and rabbit anti-sheep IgG (KPL). Protein concentrations in all samples were equalized after measurement with BioRad-protein assay kit. Immunoblotting was carried out by standard procedures, and the signal was detected by chemiluminescence using LumiGlo (KPL).

p21-9 cells [1] = experiment: 3H-thymidine labeling index (autoradiography) in p21-9 cells; assay type: cell-based, human
Method: (§2) Cell growth in the presence of IPTG was assayed in three ways: measuring ^3H-thymidine incorporation (termed the “labeling index”); observing the number of mitotic cells in the culture by microscopy (termed the “mitotic index”) and determining the distribution of the culture cells in different portions of the cell cycle (termed the “cell cycle distribution”).
^3H-thymidine incorporation assays were performed substantially as described by Dimri et al. (1995, Proc. Natl. Acad. Sci. USA 92: 9363-9367). Cells were cultured in the presence of ^3H-thymidine for 3h, and then analyzed by autoradiography. DNA replication as determined by autoradiography ceased entirely by 9 hours after addition of IPTG to the culture media (FIG. 3A).

p21-9 cells [2] = experiment: Mitotic index (microscopy after DAPI staining) in p21-9 cells; assay type: cell-based, human
Method: as §2
(§3) The mitogenic index was determined by observing cells microscopically and calculating the number of cells in mitosis after staining with 5 μg/mL 4,6-diamino-2-phenylindole (DAPI), and images were collected using a Leica DMIRB fluorescence microscope and Vaytek (Fairfield, Iowa) imaging system. Microscopically-detectable mitotic cells disappeared from these cultures in the presence of IPTG in two stages: the first occurring between 0-4 hours after IPTG addition (wherein the mitotic index dropped from about 15% in untreated cells to about 5% in IPTG-treated cells) and then again between about 10-14 hours after IPTG addition (wherein the mitotic index dropped to zero at about 13 hours after IPTG addition (FIG. 3B).

p21-9 cells [3] = experiment: Cell cycle distribution (FACS, propidium iodide) in p21-9 cells; assay type: cell-based, human; settings: after 24 hrs of 50 μM IPTG
Method: as §2
Cell cycle distribution was determined using FACS analysis of DNA content after staining with propidium iodide as described by Jordan et al. (1996, Cancer Res. 56: 816-825) using Becton Dickinson FACSort. By this time, 42-43% of IPTG-treated cells were arrested in G1 and G2, respectively, and about 15% of the cells were arrested with S-phase DNA content.

p21-9 cells [4] = experiment: Colony assay for recovery from IPTG treatment; assay type: cell-based, human; settings: for decreased clonogenicity: 3-5 days treatment; for reduction of clonogenicity: continuous exposure
Method: as §1

p21-9 cells [5] = experiment: Morphology of mitotic figures after release from IPTG; assay type: cell-based, human; settings: 1-2 days after release
Method: as §3
A major difference between cells that were inhibited by IPTG for one day compared with those inhibited for S days emerged, however, when the morphology of attached mitotic cells arising 1-2 days after release from IPTG was examined. […] The percentage of normal mitoses in 1-day and 5-day IPTG treated cells were 45% and 2%, respectively, which is close to the corresponding values for clonogenic recovery (38% and 1%).

HS 15.T cells = experiment: Mitogenic activity assay (3H-thymidine incorporation); assay type: cell-based, human; settings: media supplemented with 1% or 2% FCS; 60 hr then 24 hrs label
Method: (§4) In these experiments, conditioned media were prepared by plating 10^6 p12-9 cells per 15 cm plate in the presence of DMEM/10% FCS. The next day, IPTG was added to a final concentration of 50 μM, and this media was replaced three days later with DMEM supplemented with 0.5% FCS and 50 μM IPTG. Two days later (days 3-5 of IPTG treatment), this conditioned media was collected and stored at 4° C. up to 15 days before use. Control media were prepared by adding IPTG-free DMEM/0.5% FCS to untreated cells grown to the same density as IPTG-treated cells and collecting the media two days thereafter.
The slow-growing human fibrosarcoma cell line HS 15.T was used to detect mitogenic activity in these conditioned media. For mitogenic activity assays, both types of conditioned media, as well as fresh media and 1:1 mixtures of conditioned media and fresh media were used to test mitogenic activity. In these experiments, the conditioned media were supplemented with 1% or 2% FCS. Briefly, HS 15.T cells were plated in 12-well plates at 15,000 cells per well. Two days later, these cells were cultured in different types of media. […] Cells were then collected and their ^3H-thymidine incorporation determined as described by Mosca et al. (1992, Mol. Cell. Biol. 12: 4375-4383).

C8 cells = experiment: Apoptosis / cell survival assay in low serum; assay type: cell-based, mouse; settings: IPTG added by itself
Method: as §4
The effect of this conditioned media on apoptosis was also determined. These experiments used a mouse embryo fibroblast line C8, immortalized by E1A. […] Apoptosis was analyzed by plating 3×10^5 C8 cells per 6-cm plate, and replacing the media on the following day with fresh media supplemented with 0.4% serum or with conditioned media (no fresh serum added). DNA content analysis and DAPI staining were carried out after 24 hrs and 48 hrs, and relative cell numbers were measured by methylene blue staining (Perry et al., 1992, Mutai. Res. 276: 189-197) after 48 hrs in low-serum media.

## CC(C)S[C@@H]1O[C@H](CO)[C@H](O)[C@H](O)[C@H]1O [IPTG, isopropyl-β-thiogalactoside]
p21; 0.5 μM IPTG
  increase in p21 gene expression: no measurable increase over basal p21 levels
p21; 5 μM IPTG
  increase in p21 gene expression: half-maximal
p21; 50 μM IPTG
  increase in p21 gene expression: maximal increase
  time of peak p21 expression post-induction: about 24 hours
p21; IPTG-treated p21-9 cells, 50 μM IPTG
  increase in p21 levels: 15-20 fold
p21-9 cells [1]; 50 μM IPTG
  time to complete cessation of DNA replication after addition of IPTG: ≤ 9 h
p21-9 cells [1]; after removal of 50 μM IPTG
  time to resumption of DNA replication after release from IPTG: about 20 hours
p21-9 cells [2]; 0-4 hours after addition of 50 μM IPTG, about 15% in untreated cells
  mitotic index: about 5%
p21-9 cells [2]; 50 μM IPTG
  time at which mitotic index dropped to zero after IPTG addition: about 13 hours
p21-9 cells [2]; after removal of 50 μM IPTG
  time to resumption of mitosis after IPTG release: about 30 hours
p21-9 cells [3]
  cells arrested in G1 and G2, respectively: 42-43%
  cells arrested with S-phase DNA content: about 15%
p21-9 cells [4]; 0.5 μM IPTG
  colony formation: did not inhibit colony formation
p21-9 cells [4]; 5 μM IPTG removed after 12 or 14 hours
  colony formation: substantially undiminished colony formation
p21-9 cells [4]; 5 μM IPTG
  decreased clonogenicity: 55-58%
  reduction of clonogenicity: 80%
p21-9 cells [4]; 50 μM IPTG removed after 12 or 14 hours
  decrease in clonogenicity: 58-63%
p21-9 cells [4]; 50 μM IPTG
  decreased clonogenicity: 95-99%
  reduction of clonogenicity: 100%
p21-9 cells [5]; 1-day IPTG treatment
  percentage of normal mitoses: 45%
p21-9 cells [5]; 5-day IPTG treatment
  percentage of normal mitoses: 2%
HS 15.T cells
  effect on 3H-thymidine incorporation by HS 15.T cells: no effect
C8 cells
  effect on apoptosis in C8 cells: no effect on apoptosis
